Data taken from PMC8151276, “An Integrated Approach toward NanoBRET Tracers for Analysis of GPCR Ligand Engagement” (Molecules, 2021).
Each block holds one compound with its values, some of them ahead of it.

Columns and labels:
Format in all cases: binding
CCR4 = biological target: T1, CCR4 (Homo sapiens, UniProt P51679); test: NanoBRET screen HiBiT-CCR4 in HEK293
T1 construct: purchased Promega (in-house HiBiT-GPCR construct library, NanoBRET)
T1 sequence (P51679 1-360): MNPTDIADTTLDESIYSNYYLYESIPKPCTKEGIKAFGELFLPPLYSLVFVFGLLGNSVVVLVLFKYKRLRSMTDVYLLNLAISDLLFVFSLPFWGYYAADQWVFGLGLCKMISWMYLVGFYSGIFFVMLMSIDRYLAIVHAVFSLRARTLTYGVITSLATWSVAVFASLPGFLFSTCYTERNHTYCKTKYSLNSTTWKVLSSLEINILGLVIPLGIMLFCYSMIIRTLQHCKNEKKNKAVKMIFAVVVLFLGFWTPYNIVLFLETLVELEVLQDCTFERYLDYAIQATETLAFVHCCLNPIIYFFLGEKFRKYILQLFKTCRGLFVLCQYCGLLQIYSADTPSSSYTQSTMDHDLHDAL
Description: (§1) Each tracer candidate was screened across the entire library of HiBiT-GPCR constructs using NanoBRET as the detection modality. As depicted in Figure 4A, the specificity of interactions was evaluated through decrease in BRET due to competitive displacement of a bound tracer by excess parental compound. Each tracer was analyzed for binding to each HiBiT-GPCR fusion in the absence and in the presence of competing parental compound. Briefly, HEK293 cells were transfected with HiBiT-GPCR constructs diluted into promoterless DNA to reduce expression and maximize translocation to the cell surface. Each tracer candidate was then screened at concentrations of 1 μM and 0.1 μM across cells expressing these fusions. Cells were treated for 1.5 h with tracer either alone or in the presence of 20 μM competing parental compound (i.e., control). BRET was measured upon addition of purified LgBiT and subsequent complementation with HiBiT genetically fused to a GPCR. The specificity of interactions was assessed through a decrease in BRET signal due to competitive displacement of the bound tracer. To further gauge the robustness of these interactions, the fold response over the control (i.e., BRETtracer/BRETcontrol) was calculated. We chose a 1.5-fold response, which translates to ≥7-fold signal over noise as the minimal threshold required to score an interaction as positive. […]. Below we highlight the screening results obtained for our exemplary fluorescent tracers based on Clozapine, Amitriptyline and AZD1283.
(§2) HiBiT-GPCR DNA constructs were diluted in 10 mM Tris pH 8 to a final concentration of 0.01 μg/μL, arrayed in 96-well plates and stored at −20 °C. For transfection, HEK293 cells were suspended in Opti-MEM (without phenol red) supplemented with 2% fetal bovine serum (Seradigm) and 100 units/mL penicillin–streptomycin (Gibco) at a final concentration of 220,000 cells/mL and dispensed into white 96-well plates at 90 μL/well. Subsequent transfections and screens were carried using an Agilent Bravo Automated Liquid Handling Platform. First, the 96-well HiBiT DNA arrays were diluted 25-fold in Opti-MEM (without serum or phenol red) to a final concentration of 0.0004 μg/μL and 20 μL of the diluted DNAs were transferred into new 96-well plates. Next, promoterless carrier DNA (1 μg/μL) was diluted 25-fold (0.04 μg/μL) and then dispensed into the diluted arrays at 20 μL/well. Following brief mixing, Viafect transfection reagent (Promega) diluted 16-fold into Opti-MEM was dispensed into the plates at 40 μL/well. After mixing by pipetting, plates were incubated for 10 min on the pipetting station deck. The DNA-transfection reagent complexes were then added to plates containing cells. To facilitate the screen, 10 μL of DNA-transfection reagent complexes were added in duplicates to the top 4 and bottom 4 rows, resulting in two identical 48-well arrays per plate. Plates with transfected cells were incubated for 18–20 h at 37 °C/5% CO2. A screen of each tracer across the entire library using two different concentrations requires duplicate plates of transfected cells. Depending on the number of tracers being screened, transfections can be scaled up using the same ratios. The next day, for each tracer, four 20× screening solutions in tracer dilution buffer (Promega) were prepared: two duplicates at final concentration of 20 μM and two duplicates at a final concentration of 2 μM. A competing unmodified compound was added to one of each duplicate at a final concentration of 400 μM. The four resulting solutions were diluted 4-fold in Opti-MEM without serum or phenol red to generate 5× solutions (5 µM and 0.5 µM tracer +/− 100 μM competing compound). To screen the library, a BioTek MultiFlo FX liquid dispenser was used to dispense 22.5 µL of tracer solution to the top 4 rows and 22.5 µL tracer + competing compound solution to the 4 bottom rows. Plates were briefly mixed on an orbital shaker and incubated for 1.5 h at room temperature. […]

LTB4R2 = biological target: T2, LTB4R2 (Homo sapiens, UniProt Q9NPC1); test: NanoBRET screen HiBiT-LTB4R2 in HEK293
T2 construct: purchased Promega (in-house HiBiT-GPCR construct library, NanoBRET)
T2 sequence (Q9NPC1 1-358): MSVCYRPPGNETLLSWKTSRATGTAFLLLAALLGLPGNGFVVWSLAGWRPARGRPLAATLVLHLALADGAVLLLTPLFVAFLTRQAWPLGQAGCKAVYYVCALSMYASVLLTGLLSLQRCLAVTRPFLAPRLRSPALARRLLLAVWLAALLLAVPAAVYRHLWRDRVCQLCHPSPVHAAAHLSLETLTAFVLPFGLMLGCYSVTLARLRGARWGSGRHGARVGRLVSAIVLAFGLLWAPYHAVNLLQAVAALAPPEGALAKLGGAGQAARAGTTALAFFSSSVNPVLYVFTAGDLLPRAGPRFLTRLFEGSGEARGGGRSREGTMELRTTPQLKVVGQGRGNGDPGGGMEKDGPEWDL
Description: as §1, §2

P2RY14 = biological target: T3, P2RY14 (Homo sapiens, UniProt Q15391); test: NanoBRET screen HiBiT-P2RY14 in HEK293
T3 construct: purchased Promega (in-house HiBiT-GPCR construct library, NanoBRET)
T3 sequence (Q15391 1-338): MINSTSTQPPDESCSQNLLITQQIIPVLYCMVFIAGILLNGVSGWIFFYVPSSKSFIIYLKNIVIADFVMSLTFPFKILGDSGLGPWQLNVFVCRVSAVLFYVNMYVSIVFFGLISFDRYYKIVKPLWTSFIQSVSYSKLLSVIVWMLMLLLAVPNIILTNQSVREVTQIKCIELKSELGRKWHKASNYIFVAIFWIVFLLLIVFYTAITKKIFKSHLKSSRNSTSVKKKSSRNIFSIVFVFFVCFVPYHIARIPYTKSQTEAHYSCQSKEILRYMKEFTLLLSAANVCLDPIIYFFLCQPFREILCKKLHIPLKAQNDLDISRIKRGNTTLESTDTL
Description: as §1, §2

SMILES: CN(C)CCC=C1c2ccccc2CCc2ccc(C(=O)NCCNC(=O)CCOCCOCCOCCOCCNC(=O)CCc3ccc4n3[B-](F)(F)[N+]3=C(c5ccc[nH]5)C=CC3=C4)cc21 [Amitriptyline-a-2-NB590]
NanoBRET Fold Response (CCR4; tracer at 0.1μM): 0.92
NanoBRET Fold Response (CCR4; tracer at 1μM): 1.01
NanoBRET Fold Response (LTB4R2; tracer at 0.1μM): 0.97
NanoBRET Fold Response (LTB4R2; tracer at 1μM): 1.08
NanoBRET Fold Response (P2RY14; tracer at 1μM): 1.09

SMILES: O=C(CCc1ccc2n1[B-](F)(F)[N+]1=C(c3ccc[nH]3)C=CC1=C2)NCCOCCOCCNC(=O)OCCOCCN1CCN(C2=Nc3ccccc3Sc3ccccc32)CC1 [Quetiapine-a-2-NB590]
NanoBRET Fold Response (CCR4; CCR4, tracer 0.1μM): 1.02
NanoBRET Fold Response (CCR4; CCR4, tracer 1μM): 0.94
NanoBRET Fold Response (LTB4R2; LTB4R2, tracer 0.1μM): 1.09
NanoBRET Fold Response (LTB4R2; LTB4R2, tracer 1μM): 1.04
NanoBRET Fold Response (P2RY14; P2RY14, tracer 0.1μM): 0.96
NanoBRET Fold Response (P2RY14; P2RY14, tracer 1μM): 0.93

SMILES: Cc1cc2c(s1)Nc1ccccc1N=C2N1CCN(CCCNC(=O)CCOCCOCCOCCOCCNC(=O)CCc2ccc3n2[B-](F)(F)[N+]2=C(c4ccc[nH]4)C=CC2=C3)CC1 [Olanzapine-a-2-NB590]
NanoBRET Fold Response (CCR4; CCR4, tracer 0.1μM): 1.01
NanoBRET Fold Response (CCR4; CCR4, tracer 1μM): 0.92
NanoBRET Fold Response (LTB4R2; LTB4R2, tracer 0.1μM): 0.97
NanoBRET Fold Response (LTB4R2; LTB4R2, tracer 1μM): 1.06
NanoBRET Fold Response (P2RY14; P2RY14, tracer 0.1μM): 1.05
NanoBRET Fold Response (P2RY14; P2RY14, tracer 1μM): 1.00

SMILES: CN1CCN(C2=Nc3cc(Cl)ccc3Nc3ccc(CNC(=O)CCOCCOCCOCCOCCNC(=O)CCc4ccc5n4[B-](F)(F)[N+]4=C(c6ccc[nH]6)C=CC4=C5)cc32)CC1 [Clozapine-b-2-NB590]
NanoBRET Fold Response (CCR4; CCR4, 0.1μM tracer): 1.04
NanoBRET Fold Response (CCR4; CCR4, 1μM tracer): 0.96
NanoBRET Fold Response (LTB4R2; LTB4R2, 0.1μM tracer): 0.97
NanoBRET Fold Response (LTB4R2; LTB4R2, 1μM tracer): 1.16
NanoBRET Fold Response (P2RY14; P2RY14, 0.1μM tracer): 1.01
NanoBRET Fold Response (P2RY14; P2RY14, 1μM tracer): 0.99

NanoBRET Fold Response (CCR4; 0.1μM tracer): 0.91
NanoBRET Fold Response (CCR4; 1μM tracer): 0.81
NanoBRET Fold Response (LTB4R2; 0.1μM tracer): 1.02
NanoBRET Fold Response (LTB4R2; 1μM tracer): 1.02
NanoBRET Fold Response (P2RY14; 0.1μM tracer): 0.98
NanoBRET Fold Response (P2RY14; 1μM tracer): 0.98
SMILES: COc1ccc2c(n1)c(CCNC(C)=O)cn2CCNC(=O)CCc1ccc2n1[B-](F)(F)[N+]1=C(c3ccc[nH]3)C=CC1=C2 [Azamelatonin-1-NB590]

SMILES: CN(CCC=C1c2ccccc2CCc2ccccc21)C(=O)CCOCCOCCOCCOCCNC(=O)CCc1ccc2n1[B-](F)(F)[N+]1=C(c3ccc[nH]3)C=CC1=C2 [Amitriptyline-e-2-NB590]
NanoBRET Fold Response (CCR4; tracer at 1μM): 0.97
NanoBRET Fold Response (LTB4R2; tracer at 1μM): 1.06
NanoBRET Fold Response (P2RY14; tracer at 1μM): 1.03

SMILES: O=C(CCc1ccc2n1[B-](F)(F)[N+]1=C(c3ccc[nH]3)C=CC1=C2)NCc1ccc(C(=O)NCCOCCOCCNCC(O)COc2cccc3ccccc23)cc1 (centres unmarked) [Propranolol-3-NB590]
NanoBRET Fold Response (CCR4; CCR4, 0.1μM): 1.11
NanoBRET Fold Response (CCR4; CCR4, 1μM): 1.03
NanoBRET Fold Response (LTB4R2; LTB4R2, 0.1μM): 1.01
NanoBRET Fold Response (LTB4R2; LTB4R2, 1μM): 0.96
NanoBRET Fold Response (P2RY14; P2RY14, 0.1μM): 1.10
NanoBRET Fold Response (P2RY14; P2RY14, 1μM): 1.00

NanoBRET Fold Response (CCR4; CCR4, 0.1μM tracer): 1.05
NanoBRET Fold Response (CCR4; CCR4, 1μM tracer): 0.85
NanoBRET Fold Response (LTB4R2; LTB4R2, 0.1μM tracer): 1.03
NanoBRET Fold Response (LTB4R2; LTB4R2, 1μM tracer): 0.88
NanoBRET Fold Response (P2RY14; P2RY14, 0.1μM tracer): 1.07
NanoBRET Fold Response (P2RY14; P2RY14, 1μM tracer): 0.84
SMILES: O=C(CCOCCOCCOCCOCCNC(=O)CCc1ccc2n1[B-](F)(F)[N+]1=C(c3ccc[nH]3)C=CC1=C2)NCCCN1CCN(C2=Nc3cc(Cl)ccc3Nc3ccccc32)CC1 [Clozapine-a-2-NB590]
